Reference: paper PMC8901748, “A novel prostaglandin E receptor 4 (EP4) small molecule antagonist induces articular cartilage regeneration” (Cell Discovery, 2022)

How the values were obtained:
STAT-Luc in ATDC5 cells = experiment: STAT-Luc luciferase reporter assay; assay type: cell-based, mouse; conditions: 2 ng/ml IL-1β, 30 μM HL-43, 6 h
Procedure: Six firefly luciferase reporters were used in the Luciferase assay, including CRE-Luc (PathDetect CRE cis-Reporting System; Stratagene, La Jolla CA) driven by a basic promoter (TATA box) plus four repeats of CRE; Sox9 promoter-Luc contains human SOX9 proximal promoter region (−1034 bp to +67 bp)[45]; 4 × 48-p89-Luc, mouse Col2a1 minimal promoter. AP-1-Luc, Nf-κb-Luc, STAT-Luc were obtained from Stratagene. Chondrocytes were cultured in 24-well plates and 300 ng firefly luciferase reporter constructs were transiently transfected using transfection reagent TransExellent-DNA (Cenji Biotech Inc, China) following manufacturer’s instruction, and 15 ng of the Copia-Renilla luciferase reporter was co-transfected as a normalization control. Cells were treated with the indicated reagents for 48 h after transfection. The Dual-Luciferase measurements were performed in triplicate using the Luciferase assay kit (Promega) and a LUMIstar Omega luminometer (BMG Labtech, Mornington, Australia).

[1] = test system: Sox9 target genes in ATDC5 cells; experiment: qRT-PCR of Sox9 target genes in ATDC5 cells; assay type: cell-based, mouse; conditions: 30 μM HL-43, 24 hr
Procedure: Quantitative RT-PCR was performed to measure the relative mRNA levels. RNA samples were prepared from the chondrocytes using Trizol (Takara). cDNA was generated using the Prime Script RT reverse transcriptase kit (Yeasen, Drr036a). Primers used for amplification were shown in Supplementary Table S1, GAPDH was used as the house keeping gene.

SMILES: C[C@H](NC(=O)c1c(-c2ccccc2)nnn1CCOc1ccc(F)cc1)c1ccc(C(=O)O)cc1 [HL-43]
- STAT luciferase reporter activity (STAT-Luc in ATDC5 cells): significantly inhibited
- Sox9 target genes (Col2a1, Acan, Sox5, Col9a1, Col11a1, Col27a1, Dcn, Prg4), qRT-PCR [1]: upregulated
